Patent US20230265069A1, “Small Molecule Inhibitors That Block the Budding of Enveloped Viruses” (priority 2020, published 2023)

Experiments:
[1] = test system: HSV-2; test: HSV-2 release from infected Vero cells, plaque assay; conditions: HSV-2 infected Vero cells, virus released into media, plaque assay
[2] = target: T1, Tsg101-UEV (Tsg101 amino acids 1-145) (Homo sapiens, UniProt Q99816); test: Fluorescence thermal shift (FTS) assay, binding to Tsg101-UEV; conditions: with reducing agent DTT
T1 sequence (Q99816 1-145): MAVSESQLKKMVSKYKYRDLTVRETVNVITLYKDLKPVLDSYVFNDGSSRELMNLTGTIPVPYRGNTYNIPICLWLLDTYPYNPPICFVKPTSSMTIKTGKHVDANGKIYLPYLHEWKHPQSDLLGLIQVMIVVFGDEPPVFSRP
Description: The fluorescence-based thermal shift assay is based on the observation that a protein unfolds upon heating, exposing the hydrophobic residues within its tertiary structure. The unfolding temperature (Tm) is determined by the protein's primary sequence and solution environment. The FTS assay uses a fluorescent dye sensitive to a hydrophobic environment to probe protein stability and its modulation by small molecule ligands. The dye has a low fluorescence quantum yield when in a polar environment. Once in contact with the hydrophobic core normally buried within a folded protein that has become exposed during the thermal unfolding (melting) process, the quantum yield of the dye increases, thus providing a reporting signal. Furthermore, a protein's stability can be affected by ligand binding, resulting in an increase or decrease in its melting temperature. FTS assay uses the Tm shift upon binding of a ligand to identify hit compounds for drug discovery.
We screened chemical compounds using a fluorescence thermal shift (FTS) assay (27, 28) to identify small molecules that bind directly to a truncated form of Tsg101 (amino acids 1-145) which contains the Ubiquitin E2 variant (UEV) ubiquitin-binding domain (FIG. 1A, 1B, 1C). […] This truncated Tsg101, called Tsg101-UEV, was used because full-length Tsg101 has significant solubility issues in aqueous solution. Tsg101 is an adaptor protein and thus lacks a readily deployable functional assay, making FTS a tractable approach to identify interacting compounds. FTS monitors protein thermal denaturation using SYPRO® Orange, a dye which fluoresces when bound to hydrophobic surfaces, which allows monitoring of the changes in hydrophobic surface exposure during protein denaturation (27). Since ligand binding affects protein thermal stability, it can be detected through modulation of protein thermal denaturation (melting) as a shift in melting temperature (Tm). Tsg101-UEV has a well-defined melting curve suitable for FTS. We used the FTS assay to identify compounds that bind to Tsg101-UEV.
Fluorescence thermal shift (FTS) screening to identify small molecule binding to Tsg101-UEV. FTS using thermal shift elicited by the small molecule binding effect to protein stability. FTS monitors protein thermal denaturation using environment-sensitive dye Sypro® Orange which fluoresces when bound to hydrophobic surfaces, taking advantage of the changes in hydrophobic surface exposure in protein denaturation. Discovery of small molecule binding to target protein utilizes the observation that ligand binding affects protein thermal stability, and therefore can be detected through a shift in the protein's thermal denaturation (melting) temperature (Tm). We have employed FTS to reveal changes in thermodynamic properties of Tsg101 elicited by its interaction with a small molecule. […] A fluorescence dye Sypro® Orange (Invitrogen) was used for assay detection. The dye is excited at 473 nm and has a fluorescence emission at 610 nm. The dye binds to hydrophobic regions of a protein that are normally buried in a native protein structure. […] The Tsg101 fragment was premixed at a concentration of 2 μM with a 5× concentration of Sypro® Orange in HEPES buffer (100 mM HEPES, 150 mM NaCl, pH 7.5). Then 10 μl of the protein-dye mix was added to an assay plate and 10 to 50 nanoliters of compound, equal to 10 to 50 μM, were added with an acoustic transfer robot Echo550 (Labcyte, CA).

Rabeprazole
EC50 (μM) Inhibition of HSV-2 Budding at 24 h [1]: inactive
Tm shift of Tsg101 in the FTS assay on addition of DTT [2]: abolishes the Tm shift
